One may read the IC50 as the concentration needed to halve the response being measured.

Experimental findings from US20230093099A1, “COMPOUNDS AND METHODS OF TREATING CANCERS” (CULLGEN (SHANGHAI), INC., priority 2019, published 2023) are described below.

Molecules are shown by their SMILES.

The first assay deals with RS4;11 cells. Kind of assay: Cell viability assay (CellTiter-Glo) in RS4;11 cells. The class given is cell-based. The conditions noted are these: Homo sapiens, 72 h; RS4;11 ALL cells treated for three days; read-out: cell viability inhibition IC50. An outline of the steps: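 Three-day compound treatment of RS4;11 ALL cells (5000/well, 3-fold dilution series of 8 or 12 points), with IC50 from a nonlinear least-squares fit to CellTiter-Glo viability data.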
(ATP-based viability assays read luminescence as a measure of living cells.)
Take `O=C(CN1CCC(n2cc(-c3cnc4cccc(-c5cc(F)c(CN6CCOCC6)c(F)c5)c4n3)cn2)CC1)NCCCCCCCCNc1ccc2c(c1)C(=O)N(C1CCC(=O)NC1=O)C2=O` (stereo not shown) [JA-180, 2-(4-(4-(8-(3,5-difluoro-4-(morpholinomethyl)phenyl)quinoxalin-2-yl)-1H-pyrazol-1-yl)piperidin-1-yl)-N-(8-((2-(2,6-dioxopiperidin-3-yl)-1,3-dioxoisoindolin-5-yl)amino)octyl)acetamide]: the IC50 is below 100 nM.

Staying with this assay, now noted: Homo sapiens, 72 h; RS4;11 cells; cell viability, 3 days, CellTiter-Glo; read-out: IC50.
Regarding `Cn1c(=O)n(C2CCC(=O)NC2=O)c2cccc(NCCCCCC(=O)N3CCN(c4ccc(Nc5nc6cccc(-c7ccc(S(C)(=O)=O)cc7)n6n5)cc4)CC3)c21` (stereo not shown) [JA-284, 3-(3-Methyl-4-((6-(4-(4-((5-(4-(methylsulfonyl)phenyl)-[1,2,4]triazolo[1,5-a]pyridin-2-yl)amino)phenyl)piperazin-1-yl)-6-oxohexyl)amino)-2-oxo-2,3-dihydro-1H-benzo[d]imidazol-1-yl)piperidine-2,6-dione], the IC50 was above 500 nM. `O=C1CCC(N2C(=O)c3cccc(NCCOCCOCCOCCC(=O)N4CCC(n5cc(-c6cnc7cccc(-c8cc(F)c(CN9CCOCC9)c(F)c8)c7n6)cn5)CC4)c3C2=O)C(=O)N1` (stereo not shown) [JA-049, 4-[2-[2-[2-[3-[4-[4-[8-[3,5-Difluoro-4-(morpholinomethyl)phenyl]quinoxalin-2-yl]pyrazol-1-yl]-1-piperidyl]-3-oxo-propoxy]ethoxy]ethoxy]ethylamino]-2-(2,6-dioxo-3-piperidyl)isoindoline-1,3-dione]: the IC50 was determined as 1270 nM. With `O=C1CCC(N2Cc3cc(CCCCCCC(=O)N4CCC(n5cc(-c6cnc7cccc(-c8cc(F)c(CN9CCOCC9)c(F)c8)c7n6)cn5)CC4)ccc3C2=O)C(=O)N1` (stereo not shown) [JA-270, 3-(5-(7-(4-(4-(8-(3,5-Difluoro-4-(morpholinomethyl)phenyl)quinoxalin-2-yl)-1H-pyrazol-1-yl)piperidin-1-yl)-7-oxoheptyl)-1-oxoisoindolin-2-yl)piperidine-2,6-dione], the IC50 was 562 nM.

As for `Cc1ncsc1-c1ccc(CNC(=O)[C@@H]2C[C@@H](O)CN2C(=O)[C@@H](NC(=O)COCCOCCOCCOCCOCC(=O)N2CCC(n3cc(-c4cnc5cccc(-c6cc(F)c(CN7CCOCC7)c(F)c6)c5n4)cn3)CC2)C(C)(C)C)cc1` [JA-055, (2S,4R)-1-[(2S)-2-[[2-[2-[2-[2-[2-[2-[4-[4-[8-[3,5-Difluoro-4-(morpholinomethyl)phenyl]quinoxalin-2-yl]pyrazol-1-yl]-1-piperidyl]-2-oxo-ethoxy]ethoxy]ethoxy]ethoxy]ethoxy]acetyl]amino]-3,3-dimethyl-butanoyl]-4-hydroxy-N-[[4-(4-methylthiazol-5-yl)phenyl]methyl]pyrrolidine-2-carboxamide], the IC50 was above 10000 nM. The same measure, in the same setting: under `CS(=O)(=O)c1ccc(-c2cccc3nc(Nc4ccc(N5CCN(CCCCCC#Cc6ccc7c(c6)C(=O)N(C6CCC(=O)NC6=O)C7=O)CC5)cc4)nn23)cc1` (stereo not shown) [JA-252, 2-(2,6-dioxopiperidin-3-yl)-5-(7-(4-(4-((5-(4-(methylsulfonyl)phenyl)-[1,2,4]triazolo[1,5-a]pyridin-2-yl)amino)phenyl)piperazin-1-yl)hept-1-yn-1-yl)isoindoline-1,3-dione] stands 24.6 nM; under `CS(=O)(=O)c1ccc(-c2cccc3nc(Nc4ccc(N5CCN(CC(=O)NCCCCCNc6cccc7c6C(=O)N(C6CCC(=O)NC6=O)C7=O)CC5)cc4)nn23)cc1` (stereo not shown) [JA-113, N-(5-((2-(2,6-Dioxopiperidin-3-yl)-1,3-dioxoisoindolin-4-yl)amino)pentyl)-2-(4-(4-((5-(4-(methylsulfonyl)phenyl)-[1,2,4]triazolo[1,5-a]pyridin-2-yl)amino)phenyl)piperazin-1-yl)acetamide], above 10000 nM; under `CS(=O)(=O)c1ccc(-c2cccc3nc(Nc4ccc(N5CCN(C(=O)CCCCCCc6ccc7c(c6)C(=O)N(C6CCC(=O)NC6=O)C7=O)CC5)cc4)nn23)cc1` (stereo not shown) [JA-249, 2-(2,6-Dioxopiperidin-3-yl)-5-(7-(4-(4-((5-(4-(methylsulfonyl)phenyl)-[1,2,4]triazolo[1,5-a]pyridin-2-yl)amino)phenyl)piperazin-1-yl)-7-oxoheptyl)isoindoline-1,3-dione], 104 nM. The same measure, in the same setting: the same measure for `CS(=O)(=O)c1ccc(-c2cccc3nc(Nc4ccc(N5CCN(C(=O)CCOCCOCCOCCNc6cccc7c6C(=O)N(C6CCC(=O)NC6=O)C7=O)CC5)cc4)nn23)cc1` (stereo not shown) [JA-085, 2-(2,6-Dioxo-piperidin-3-yl)-4-[2-(2-{2-[3-(4-{4-[5-(4-methanesulfonyl-phenyl)-[1,2,4]triazolo[1,5-a]pyridin-2-ylamino]-phenyl}-piperazin-1-yl)-3-oxo-propoxy]-ethoxy}-ethoxy)-ethylamino]-isoindole-1,3-dione]: 3950 nM; for `O=C(CN1CCC(n2cc(-c3cnc4cccc(-c5cc(F)c(CN6CCOCC6)c(F)c5)c4n3)cn2)CC1)NCCCCCCCCNc1ccc2c(c1)C(=O)N(C1CCC(=O)NC1=O)C2=O` (stereo not shown) [JA-180, 2-(4-(4-(8-(3,5-difluoro-4-(morpholinomethyl)phenyl)quinoxalin-2-yl)-1H-pyrazol-1-yl)piperidin-1-yl)-N-(8-((2-(2,6-dioxopiperidin-3-yl)-1,3-dioxoisoindolin-5-yl)amino)octyl)acetamide]: 88.6 nM; for `CS(=O)(=O)c1ccc(-c2cccc3nc(Nc4ccc(N5CCN(C(=O)CCCCNc6cccc7c6C(=O)N(C6CCC(=O)NC6=O)C7=O)CC5)cc4)nn23)cc1` (stereo not shown) [JA-011, 2-(2,6-Dioxo-piperidin-3-yl)-4-[5-(4-{4-[5-(4-methanesulfonyl-phenyl)-[1,2,4]triazolo[1,5-a]pyridin-2-ylamino]-phenyl}-piperazin-1-yl)-5-oxo-pentylamino]-isoindole-1,3-dione]: 3040 nM. With `Cc1cnc(Nc2ccc(N3CCN(C(=O)CCOCCOCCOCCNc4ccc5c(c4)C(=O)N(C4CCC(=O)NC4=O)C5=O)CC3)cc2)nc1Nc1cccc(S(=O)(=O)NC(C)(C)C)c1` (stereo not shown) [JA-234, N-(tert-butyl)-3-((2-((4-(4-(3-(2-(2-(2-((2-(2,6-dioxopiperidin-3-yl)-1,3-dioxoisoindolin-5-yl)amino)ethoxy)ethoxy)ethoxy)propanoyl)piperazin-1-yl)phenyl)amino)-5-methylpyrimidin-4-yl)amino)benzenesulfonamide], the IC50 was found to be 1590 nM.

Turning to `Cc1cnc(Nc2ccc(N3CCN(C(=O)COCCOCC(=O)N[C@H](C(=O)N4C[C@H](O)C[C@H]4C(=O)NCc4ccc(-c5scnc5C)cc4)C(C)(C)C)CC3)cc2)nc1Nc1cccc(S(=O)(=O)NC(C)(C)C)c1` [JA-032, (2S,4R)-1-((S)-2-(2-(2-(2-(4-(4-((4-((3-(N-(tert-Butyl)sulfamoyl)phenyl)amino)-5-methylpyrimidin-2-yl)amino)phenyl)piperazin-1-yl)-2-oxoethoxy)ethoxy)acetamido)-3,3-dimethylbutanoyl)-4-hydroxy-N-(4-(4-methylthiazol-5-yl)benzyl)pyrrolidine-2-carboxamide], the IC50 was above 10000 nM. For the molecule `O=C(CN1CCC(n2cc(-c3cnc4cccc(-c5cc(F)c(CN6CCOCC6)c(F)c5)c4n3)cn2)CC1)NCCOCCOCCNc1ccc2c(c1)C(=O)N(C1CCC(=O)NC1=O)C2=O` (stereo not shown) [JA-170, 2-(4-(4-(8-(3,5-Difluoro-4-(morpholinomethyl)phenyl)quinoxalin-2-yl)-1H-pyrazol-1-yl)piperidin-1-yl)-N-(2-(2-(2-((2-(2,6-dioxopiperidin-3-yl)-1,3-dioxoisoindolin-5-yl)amino)ethoxy)ethoxy)ethyl)acetamide], the IC50 is above 10000 nM. As for `Cc1ncsc1-c1ccc(CNC(=O)[C@@H]2C[C@@H](O)CN2C(=O)[C@@H](NC(=O)CCOCCOCCOCCOCCNC(=O)CN2CCN(c3ccc(Nc4nc5cccc(-c6ccc(S(C)(=O)=O)cc6)n5n4)cc3)CC2)C(C)(C)C)cc1` [JA-133, (2S,4R)-1-((S)-20-(tert-Butyl)-1-(4-(4-((5-(4-(methylsulfonyl)phenyl)-[1,2,4]triazolo[1,5-a]pyridin-2-yl)amino)phenyl)piperazin-1-yl)-2,18-dioxo-6,9,12,15-tetraoxa-3,19-diazahenicosan-21-oyl)-4-hydroxy-N-(4-(4-methylthiazol-5-yl)benzyl)pyrrolidine-2-carboxamide], the IC50 is above 10000 nM.

For the molecule `CS(=O)(=O)c1ccc(-c2cccc3nc(Nc4ccc(N5CCN(CC(=O)NCCOCCOCCOCCOCCOCCNc6cccc7c6C(=O)N(C6CCC(=O)NC6=O)C7=O)CC5)cc4)nn23)cc1` (stereo not shown) [JA-129, N-(17-((2-(2,6-Dioxopiperidin-3-yl)-1,3-dioxoisoindolin-4-yl)amino)-3,6,9,12,15-pentaoxaheptadecyl)-2-(4-(4-((5-(4-(methylsulfonyl)phenyl)-[1,2,4]triazolo[1,5-a]pyridin-2-yl)amino)phenyl)piperazin-1-yl)acetamide], the IC50 was above 10000 nM.

`O=C1CCC(N2C(=O)c3ccc(NCCCC(=O)N4CCC(n5cc(-c6cnc7cccc(-c8cc(F)c(CN9CCOCC9)c(F)c8)c7n6)cn5)CC4)cc3C2=O)C(=O)N1` (stereo not shown) [JA-192, 5-((4-(4-(4-(8-(3,5-Difluoro-4-(morpholinomethyl)phenyl)quinoxalin-2-yl)-1H-pyrazol-1-yl)piperidin-1-yl)-4-oxobutyl)amino)-2-(2,6-dioxopiperidin-3-yl)isoindoline-1,3-dione]: the IC50 is above 10000 nM. `Cc1cnc(Nc2ccc(N3CCN(C(=O)CCCCC(=O)N[C@H](C(=O)N4C[C@H](O)C[C@H]4C(=O)NCc4ccc(-c5scnc5C)cc4)C(C)(C)C)CC3)cc2)nc1Nc1cccc(S(=O)(=O)NC(C)(C)C)c1` [JA-024, (2S,4R)-1-((S)-2-(6-(4-(4-((4-((3-(N-(tert-Butyl)sulfamoyl)phenyl)amino)-5-methylpyrimidin-2-yl)amino)phenyl)piperazin-1-yl)-6-oxohexanamido)-3,3-dimethylbutanoyl)-4-hydroxy-N-(4-(4-methylthiazol-5-yl)benzyl)pyrrolidine-2-carboxamide]: the IC50 was above 10000 nM.

On to `CS(=O)(=O)c1ccc(-c2cccc3nc(Nc4ccc(N5CCN(CC(=O)NCCOCCOCCOCCNc6cccc7c6C(=O)N(C6CCC(=O)NC6=O)C7=O)CC5)cc4)nn23)cc1` (stereo not shown) [JA-127, N-(2-(2-(2-(2-((2-(2,6-Dioxopiperidin-3-yl)-1,3-dioxoisoindolin-4-yl)amino)ethoxy)ethoxy)ethoxy)ethyl)-2-(4-(4-((5-(4-(methylsulfonyl)phenyl)-[1,2,4]triazolo[1,5-a]pyridin-2-yl)amino)phenyl)piperazin-1-yl)acetamide], for which the IC50 was above 10000 nM.
